Data reported in article PMC3914206.

Tests used:
Assay in all cases: KiNativ chemical proteomics profiling in HeLa and PC3 cell lysates
Type in all cases: binding
[1] = biological target: T1, selected panels of kinases in HeLa and PC3 cell lysates (Homo sapiens, UniProt O15530); details: 10 uM; PDK1; peptide EYAIkILEK; proteome PC3; labeling site Lys1
T1 construct: endogenous in cells; host or cells: HeLa and PC3 cell lysates

[2] = biological target: T2, selected panels of kinases in HeLa and PC3 cell lysates (Homo sapiens, UniProt Q9NZJ5); details: 10 uM, PEK, peptide DLk[…], labeling site Lys2
T2 construct: endogenous in cells; host or cells: HeLa and PC3 cell lysates
T2 sequence (Q9NZJ5 30-1116): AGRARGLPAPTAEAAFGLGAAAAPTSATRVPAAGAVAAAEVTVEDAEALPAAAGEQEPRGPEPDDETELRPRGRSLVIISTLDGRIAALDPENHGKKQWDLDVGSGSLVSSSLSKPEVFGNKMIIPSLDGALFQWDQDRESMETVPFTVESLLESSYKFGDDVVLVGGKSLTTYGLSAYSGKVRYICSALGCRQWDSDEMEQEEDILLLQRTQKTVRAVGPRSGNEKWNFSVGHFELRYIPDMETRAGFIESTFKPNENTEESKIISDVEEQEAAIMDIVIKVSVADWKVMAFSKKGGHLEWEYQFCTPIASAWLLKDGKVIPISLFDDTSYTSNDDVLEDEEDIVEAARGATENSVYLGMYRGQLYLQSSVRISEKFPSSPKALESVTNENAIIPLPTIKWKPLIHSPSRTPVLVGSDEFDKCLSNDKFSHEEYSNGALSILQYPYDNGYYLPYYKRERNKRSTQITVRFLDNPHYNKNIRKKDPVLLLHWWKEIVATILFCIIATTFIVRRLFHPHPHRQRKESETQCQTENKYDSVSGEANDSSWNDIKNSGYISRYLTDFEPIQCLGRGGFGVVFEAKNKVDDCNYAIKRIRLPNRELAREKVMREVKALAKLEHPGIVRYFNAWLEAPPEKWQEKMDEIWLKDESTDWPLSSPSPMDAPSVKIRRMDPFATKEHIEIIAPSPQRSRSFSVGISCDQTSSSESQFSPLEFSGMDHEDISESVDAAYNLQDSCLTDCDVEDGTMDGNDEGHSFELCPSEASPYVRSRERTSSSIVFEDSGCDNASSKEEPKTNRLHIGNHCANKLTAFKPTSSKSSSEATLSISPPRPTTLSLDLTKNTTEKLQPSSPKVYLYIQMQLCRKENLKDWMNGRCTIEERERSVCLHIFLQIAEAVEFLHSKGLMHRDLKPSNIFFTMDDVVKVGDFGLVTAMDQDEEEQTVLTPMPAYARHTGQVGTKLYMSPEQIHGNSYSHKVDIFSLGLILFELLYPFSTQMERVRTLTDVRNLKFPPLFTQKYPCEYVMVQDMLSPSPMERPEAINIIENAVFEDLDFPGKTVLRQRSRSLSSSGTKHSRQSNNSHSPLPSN

[3] = biological target: T3, selected panels of kinases in HeLa and PC3 cell lysates (Homo sapiens, UniProt P49840); details: 10 uM; proteome HEL; peptide DIk[…]; labeling site Lys2
T3 construct: endogenous in cells; host or cells: HeLa and PC3 cell lysates
T3 sequence (P49840 whole entry): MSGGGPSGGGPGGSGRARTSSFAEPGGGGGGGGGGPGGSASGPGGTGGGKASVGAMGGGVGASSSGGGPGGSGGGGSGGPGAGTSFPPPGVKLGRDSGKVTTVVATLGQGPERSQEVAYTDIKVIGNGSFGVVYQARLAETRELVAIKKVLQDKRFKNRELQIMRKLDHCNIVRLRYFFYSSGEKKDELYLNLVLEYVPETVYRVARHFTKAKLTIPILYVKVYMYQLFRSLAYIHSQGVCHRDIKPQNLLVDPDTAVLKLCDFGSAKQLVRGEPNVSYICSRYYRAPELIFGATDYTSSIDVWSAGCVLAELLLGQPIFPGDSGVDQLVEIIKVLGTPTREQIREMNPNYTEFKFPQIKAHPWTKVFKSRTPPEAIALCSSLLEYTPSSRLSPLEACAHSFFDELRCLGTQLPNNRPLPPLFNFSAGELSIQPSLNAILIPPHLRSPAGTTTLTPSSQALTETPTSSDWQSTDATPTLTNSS

[4] = biological target: T4, selected panels of kinases in HeLa and PC3 cell lysates (Homo sapiens, UniProt P43405); details: 10 uM; SYK; peptide ISDFGLSkALR; proteome HEL; labeling site Activation Loop
T4 construct: endogenous in cells; host or cells: HeLa and PC3 cell lysates

[5] = biological target: T5, selected panels of kinases in HeLa and PC3 cell lysates (Homo sapiens, UniProt Q13188); details: 10 uM, peptide […]k[…], labeling site Lys1
T5 construct: endogenous in cells; host or cells: HeLa and PC3 cell lysates
T5 sequence (Q13188 1-491): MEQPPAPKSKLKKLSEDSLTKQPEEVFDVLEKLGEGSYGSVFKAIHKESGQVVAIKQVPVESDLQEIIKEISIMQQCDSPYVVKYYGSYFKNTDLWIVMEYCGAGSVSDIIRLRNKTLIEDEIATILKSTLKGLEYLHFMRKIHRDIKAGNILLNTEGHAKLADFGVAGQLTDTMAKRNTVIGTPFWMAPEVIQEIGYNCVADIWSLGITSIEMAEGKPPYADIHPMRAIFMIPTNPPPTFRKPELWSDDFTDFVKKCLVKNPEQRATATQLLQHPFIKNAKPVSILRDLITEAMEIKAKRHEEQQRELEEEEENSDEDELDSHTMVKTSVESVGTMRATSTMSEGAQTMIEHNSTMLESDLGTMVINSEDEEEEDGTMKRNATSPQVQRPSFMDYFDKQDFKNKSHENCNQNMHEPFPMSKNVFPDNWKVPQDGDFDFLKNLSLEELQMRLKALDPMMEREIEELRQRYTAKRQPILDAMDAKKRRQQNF

[6] = biological target: T6, selected panels of kinases in HeLa and PC3 cell lysates (Homo sapiens, UniProt P23443); details: 10 uM, peptide DLk[…], labeling site Lys2; for % Inhibition p70S6K: proteome PC3; for % Inhibiton, p70S6K: proteome HEL
T6 construct: endogenous in cells; host or cells: HeLa and PC3 cell lysates
T6 sequence (P23443 whole entry): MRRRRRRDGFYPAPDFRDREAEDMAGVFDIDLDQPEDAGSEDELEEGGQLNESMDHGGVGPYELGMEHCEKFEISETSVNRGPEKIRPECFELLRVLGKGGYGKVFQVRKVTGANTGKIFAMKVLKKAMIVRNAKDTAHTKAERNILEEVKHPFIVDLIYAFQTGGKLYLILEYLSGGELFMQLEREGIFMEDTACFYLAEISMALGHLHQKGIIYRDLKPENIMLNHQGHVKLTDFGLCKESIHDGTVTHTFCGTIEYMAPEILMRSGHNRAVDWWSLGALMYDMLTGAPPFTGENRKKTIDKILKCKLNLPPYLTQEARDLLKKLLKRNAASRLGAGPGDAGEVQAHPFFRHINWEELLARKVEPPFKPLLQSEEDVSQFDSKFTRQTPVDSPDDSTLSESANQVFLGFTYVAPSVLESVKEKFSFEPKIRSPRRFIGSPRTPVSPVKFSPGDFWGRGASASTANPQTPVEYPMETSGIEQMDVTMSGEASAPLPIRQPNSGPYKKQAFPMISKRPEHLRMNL

[7] = biological target: T7, selected panels of kinases in HeLa and PC3 cell lysates (Homo sapiens, UniProt Q15759); details: 10 uM; proteome PC3; peptide QELNkTVWEVPQR; labeling site Other
T7 construct: endogenous in cells; host or cells: HeLa and PC3 cell lysates

[8] = biological target: T8, selected panels of kinases in HeLa and PC3 cell lysates (Homo sapiens, UniProt Q07912); details: 10 uM; proteome HEL; peptide TVSVAVk[…]; labeling site Lys1
T8 construct: endogenous in cells; host or cells: HeLa and PC3 cell lysates

[9] = biological target: T9, selected panels of kinases in HeLa and PC3 cell lysates (Homo sapiens, UniProt Q13535); details: 10 uM, peptide FYIMMCkPK, labeling site ATP
T9 construct: endogenous in cells; host or cells: HeLa and PC3 cell lysates
T9 sequence (Q13535 whole entry): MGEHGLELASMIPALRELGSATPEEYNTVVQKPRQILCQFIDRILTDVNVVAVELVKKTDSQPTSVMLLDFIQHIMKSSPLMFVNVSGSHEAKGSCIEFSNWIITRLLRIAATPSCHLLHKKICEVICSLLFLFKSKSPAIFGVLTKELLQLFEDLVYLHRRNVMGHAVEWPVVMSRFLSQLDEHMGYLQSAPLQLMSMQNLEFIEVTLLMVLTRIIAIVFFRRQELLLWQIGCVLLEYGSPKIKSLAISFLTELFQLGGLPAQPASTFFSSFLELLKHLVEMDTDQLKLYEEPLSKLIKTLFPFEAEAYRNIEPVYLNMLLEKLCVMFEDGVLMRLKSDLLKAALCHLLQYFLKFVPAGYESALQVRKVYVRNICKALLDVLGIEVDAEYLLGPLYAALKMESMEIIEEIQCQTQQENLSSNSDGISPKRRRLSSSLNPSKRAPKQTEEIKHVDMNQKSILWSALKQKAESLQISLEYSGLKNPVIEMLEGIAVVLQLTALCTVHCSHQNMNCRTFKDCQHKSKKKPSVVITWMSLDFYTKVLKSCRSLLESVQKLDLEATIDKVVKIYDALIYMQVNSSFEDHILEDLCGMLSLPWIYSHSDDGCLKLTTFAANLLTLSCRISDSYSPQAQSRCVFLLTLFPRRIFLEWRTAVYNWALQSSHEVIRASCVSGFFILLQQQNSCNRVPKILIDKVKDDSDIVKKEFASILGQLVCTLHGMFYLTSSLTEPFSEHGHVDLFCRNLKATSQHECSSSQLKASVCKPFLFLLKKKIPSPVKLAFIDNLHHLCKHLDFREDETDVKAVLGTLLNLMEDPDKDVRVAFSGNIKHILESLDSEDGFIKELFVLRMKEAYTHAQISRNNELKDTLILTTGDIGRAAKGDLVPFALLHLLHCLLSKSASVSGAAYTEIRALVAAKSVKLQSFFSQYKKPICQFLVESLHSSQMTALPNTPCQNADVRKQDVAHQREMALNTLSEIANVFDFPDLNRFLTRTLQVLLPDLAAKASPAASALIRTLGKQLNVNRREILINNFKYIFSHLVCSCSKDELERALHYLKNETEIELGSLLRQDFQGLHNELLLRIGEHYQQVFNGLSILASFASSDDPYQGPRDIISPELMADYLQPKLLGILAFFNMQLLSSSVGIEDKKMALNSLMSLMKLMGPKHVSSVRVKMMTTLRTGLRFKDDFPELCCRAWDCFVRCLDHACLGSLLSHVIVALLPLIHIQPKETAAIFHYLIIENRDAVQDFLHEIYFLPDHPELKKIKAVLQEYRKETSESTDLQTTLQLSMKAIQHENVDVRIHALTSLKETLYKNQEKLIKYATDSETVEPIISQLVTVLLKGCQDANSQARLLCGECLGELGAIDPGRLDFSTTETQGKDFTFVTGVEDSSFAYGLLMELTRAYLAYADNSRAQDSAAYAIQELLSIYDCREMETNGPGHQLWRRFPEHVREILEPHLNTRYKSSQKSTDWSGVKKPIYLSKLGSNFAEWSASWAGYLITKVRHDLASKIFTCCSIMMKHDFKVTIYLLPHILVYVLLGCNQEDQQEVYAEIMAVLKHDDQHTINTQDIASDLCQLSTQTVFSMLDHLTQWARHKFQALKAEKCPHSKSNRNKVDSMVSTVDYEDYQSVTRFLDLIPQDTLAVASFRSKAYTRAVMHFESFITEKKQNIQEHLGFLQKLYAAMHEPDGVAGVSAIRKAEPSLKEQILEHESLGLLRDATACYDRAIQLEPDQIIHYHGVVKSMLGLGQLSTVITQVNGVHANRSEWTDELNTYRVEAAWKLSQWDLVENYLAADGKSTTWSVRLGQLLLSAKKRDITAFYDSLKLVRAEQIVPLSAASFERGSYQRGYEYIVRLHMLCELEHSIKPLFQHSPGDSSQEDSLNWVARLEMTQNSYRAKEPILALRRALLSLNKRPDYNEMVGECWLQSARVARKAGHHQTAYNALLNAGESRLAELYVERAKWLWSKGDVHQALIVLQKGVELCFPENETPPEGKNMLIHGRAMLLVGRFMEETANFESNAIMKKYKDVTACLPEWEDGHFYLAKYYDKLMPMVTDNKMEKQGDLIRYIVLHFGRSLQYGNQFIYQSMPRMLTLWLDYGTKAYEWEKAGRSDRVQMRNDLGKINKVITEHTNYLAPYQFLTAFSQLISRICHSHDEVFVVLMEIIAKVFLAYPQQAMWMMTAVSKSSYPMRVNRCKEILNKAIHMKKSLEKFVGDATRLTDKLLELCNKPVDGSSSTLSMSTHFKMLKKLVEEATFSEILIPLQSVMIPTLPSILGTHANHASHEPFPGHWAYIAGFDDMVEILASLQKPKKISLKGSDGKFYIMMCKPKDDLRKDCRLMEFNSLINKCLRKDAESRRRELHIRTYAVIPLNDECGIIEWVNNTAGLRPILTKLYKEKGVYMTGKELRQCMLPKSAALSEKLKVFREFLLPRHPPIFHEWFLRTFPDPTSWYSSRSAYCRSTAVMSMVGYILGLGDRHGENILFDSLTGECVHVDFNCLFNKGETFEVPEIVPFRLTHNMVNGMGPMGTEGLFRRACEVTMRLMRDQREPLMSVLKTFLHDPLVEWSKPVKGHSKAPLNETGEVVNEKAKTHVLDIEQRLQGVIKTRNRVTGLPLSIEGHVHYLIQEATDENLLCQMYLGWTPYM

[10] = biological target: T10, selected panels of kinases in HeLa and PC3 cell lysates (Homo sapiens, UniProt P19784); details: 10 uM; proteome PC3; peptide DVk[…]; labeling site Lys2
T10 construct: endogenous in cells; host or cells: HeLa and PC3 cell lysates

[11] = biological target: T11, selected panels of kinases in HeLa and PC3 cell lysates (Homo sapiens, UniProt P51812); details: 10 uM; for % Inhibition RSK2 domain1: peptide LTDFGLSkESIDHEKK, labeling site Activation Loop
T11 construct: endogenous in cells; host or cells: HeLa and PC3 cell lysates
T11 sequence (P51812 whole entry, the tested form may be a part): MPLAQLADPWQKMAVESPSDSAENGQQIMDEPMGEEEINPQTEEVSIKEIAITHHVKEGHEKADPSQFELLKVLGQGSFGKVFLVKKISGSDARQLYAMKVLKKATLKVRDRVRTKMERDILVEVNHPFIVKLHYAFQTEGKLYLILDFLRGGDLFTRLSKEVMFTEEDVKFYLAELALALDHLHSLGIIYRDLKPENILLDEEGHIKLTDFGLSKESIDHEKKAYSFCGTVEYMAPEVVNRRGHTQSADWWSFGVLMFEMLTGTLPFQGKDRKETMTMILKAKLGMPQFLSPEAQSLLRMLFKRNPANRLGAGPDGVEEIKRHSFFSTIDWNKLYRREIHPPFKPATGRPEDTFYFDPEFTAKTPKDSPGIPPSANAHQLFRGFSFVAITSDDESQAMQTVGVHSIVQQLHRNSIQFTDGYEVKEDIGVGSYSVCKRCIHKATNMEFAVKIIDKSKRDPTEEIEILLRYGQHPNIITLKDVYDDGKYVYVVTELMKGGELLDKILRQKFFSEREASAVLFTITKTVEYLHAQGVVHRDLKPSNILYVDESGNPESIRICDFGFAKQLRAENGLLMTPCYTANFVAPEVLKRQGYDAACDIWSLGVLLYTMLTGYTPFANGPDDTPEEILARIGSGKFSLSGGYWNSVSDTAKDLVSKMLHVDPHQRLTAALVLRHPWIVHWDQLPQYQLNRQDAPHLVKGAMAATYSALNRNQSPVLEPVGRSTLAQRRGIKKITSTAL

[12] = peptide DLk[…], proteome PC3, labeling site Lys2
[13] = peptide Sk[…], proteome HEL, labeling site Protein Kinase Domain
[14] = peptide Sk[…], proteome PC3, labeling site Protein Kinase Domain

T1 sequence (O15530 whole entry): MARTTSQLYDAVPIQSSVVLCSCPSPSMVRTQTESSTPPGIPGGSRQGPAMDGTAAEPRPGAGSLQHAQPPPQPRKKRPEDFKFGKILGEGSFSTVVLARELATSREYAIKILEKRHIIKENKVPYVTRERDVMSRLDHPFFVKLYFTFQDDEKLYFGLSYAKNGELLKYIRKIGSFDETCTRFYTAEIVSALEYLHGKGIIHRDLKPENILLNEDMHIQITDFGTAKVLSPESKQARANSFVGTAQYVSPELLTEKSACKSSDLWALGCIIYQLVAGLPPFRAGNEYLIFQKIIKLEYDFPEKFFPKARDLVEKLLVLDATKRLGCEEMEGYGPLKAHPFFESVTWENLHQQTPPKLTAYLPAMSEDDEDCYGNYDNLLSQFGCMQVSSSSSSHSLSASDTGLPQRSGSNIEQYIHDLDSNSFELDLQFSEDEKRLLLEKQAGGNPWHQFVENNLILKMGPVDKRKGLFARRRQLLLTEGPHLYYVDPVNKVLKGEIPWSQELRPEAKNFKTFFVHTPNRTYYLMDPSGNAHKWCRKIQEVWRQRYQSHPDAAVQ

SMILES | % Inhibition PDK1 [1] [%] | % Inhibition PEK ([2]; proteome HEL) [%] | % Inhibition PEK ([2]; proteome PC3) [%] | % Inhibiton, GSK3A [3] [%] | % Inhibition SYK [4] [%] | % Inhibiton, MST2 ([5]; proteome HEL) [%] | % Inhibiton, MST2 ([5]; proteome PC3) [%] | % Inhibition p70S6K [6] [%] | % Inhibiton, p70S6K [6] [%] | % Inhibiton, p38b [7] [%] | % Inhibiton, ACK [8] [%] | % Inhibiton, ATR ([9]; proteome HEL) [%] | % Inhibiton, ATR ([9]; proteome PC3) [%] | % Inhibiton, CK2a2 [10] [%] | % Inhibition RSK2 domain1 ([11]; proteome HEL) [%] | % Inhibition RSK2 domain2 [11, 12] [%] | % Inhibition RSK2 domain2 [11, 13] [%] | % Inhibition RSK2 domain2 [11, 14] [%]
CCOc1cc(C(=O)N2CCC(N3CCN(C)CC3)CC2)ccc1Nc1ncc2c(n1)N(C1CCCC1)c1ccccc1C(=O)N2C [Compound 26] | 0 | -23.3 | -4.9 | 10.2 | -0.8 | 10.8 | -9.4 | 10 | -24.4 | 14.6 | 20.1 | -9.8 | -4.3 | 8 | 7.2 | -0.5 | 7.4 | -14.6
COc1cc(C(=O)N2CCC(N3CCN(C)CC3)CC2)ccc1Nc1ncc2c(n1)N(C1CCCC1)c1ccccc1C(=O)N2C [Compound 25, 11-cyclopentyl-2-((2-methoxy-4-(4-(4-methylpiperazin-1-yl)piperidine-1-carbonyl)phenyl)amino)-5-methyl-5H-benzo[e]pyrimido[5,4-b][1,4]diazepin-6(11H)-one] | -5.4 | 6.4 | 6.5 | 4.1 | 5.7 | -4.5 | -9.2 | 3.9 | 16.9 | 14.5 | 43.5 | 8.5 | 21.0 | -14.2 | 1.2 | -4.3 | 1.3 | 1.9
